Literature values, collected in patent US20130084245A1, “PET MONITORING OF A-BETA-DIRECTED IMMUNOTHERAPY” (Wyeth LLC, priority 2010, published 2013).

Experiments:
Aβ deposits [1] = molecular target: T1, Aβ deposits (Homo sapiens, UniProt P05067); conditions: areas of brain association cortex targeted by Aβ deposits
T1 construct: aggregated fibrillar deposits of the Aβ peptide

[2] = molecular target: T2, aggregated fibrillar deposits of the Aβ peptide (Homo sapiens, UniProt P05067)
T2 construct: aggregated fibrillar deposits of the Aβ peptide

Aβ deposits [3] = molecular target: T1, Aβ deposits; conditions: preliminary study

T2 sequence (P05067 672-713 limits assumed): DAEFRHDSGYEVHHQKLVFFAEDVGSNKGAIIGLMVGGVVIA
T1 sequence (P05067 672-713 limits assumed): as above

Row | Compound | Retention in AD patients compared with controls (Aβ deposits [1]) | Affinity for aggregated fibrillar deposits of the Aβ peptide [2] | Selectivity of binding to postmortem human brain ([2]; low nanomolar concentrations typically used in PET studies) | Performance as PET ligand in AD and controls (Aβ deposits [3])
1 | CNc1ccc(-c2nc3ccc(O)cc3s2)cc1 [PiB, 2-(4′-methylaminophenyl)-6-hydroxybenzothiazole] | approximately two-fold | low nanomolar affinity | selective for fibrillar Aβ deposits | 
2 | CNc1ccc(/C=C/c2ccc(OCCOCCOCC[18F])cc2)cc1 [^18F-BAY94-9172] |  |  |  | performed comparably to ^11C-PIB
